Earlier results, collected in patent publication US6676966B1, “Extended release metformin hydrochloride formulations” (Intellipharmaceutics Corp., priority 2000, dated 2004).
Where a name gives a salt, the structure may show the parent alone.

Details: single 850 mg immediate release tablet with food vs same tablet without food

## CN(C)C(=N)N=C(N)N [metformin, Metformin hydrochloride]
  lower AUC in plasma with food: 25%
  lower peak concentration in plasma with food: ~40%
  prolongation of time to peak plasma concentration with food: 35 min
